Biological target: Serine/threonine-protein kinase/endoribonuclease IRE1 (Homo sapiens, UniProt O75460)
Assay: Inhibition Assay: A fusion protein comprising glutathione S transferase (GST) and human IRE-1alpha (GST-IRE-1alpha) obtained from a 500 ml baculovirus-infected insect cell culture can be used to measure IRE-1alpha activity in vitro. Five ul of a reaction mixture comprising IX reaction buffer (5x reaction buffer is 100 mM Hepes pH 7.5, 250 mM KOAc, 2.5 mM MgCl2), 3 mM DTT, and 0.4% polyethylene glycol water is added to each well of 384 well plates. Twenty-five nanoliters of a 1 mM test compound solution are added to test wells. Three ul of a 128 ng/ml IRE-1alpha preparation are added to each test well and to positive control wells (final concentration 5.82 ng/well). Negative control wells contain only reaction mixture and test compound.After spinning the plates at 1200 rpm for 30 seconds, 3 ul of an IRE-1alpha human mini-XBP-1 mRNA stem-loop substrate 5'-[…]-3' (SEQ ID NO:1), labeled with the fluorescent dye Cy5 at the 5' end and Black Hole Quencher 2.

Serine/threonine-protein kinase/endoribonuclease IRE1, sequence (O75460 whole entry, the tested form may be a part): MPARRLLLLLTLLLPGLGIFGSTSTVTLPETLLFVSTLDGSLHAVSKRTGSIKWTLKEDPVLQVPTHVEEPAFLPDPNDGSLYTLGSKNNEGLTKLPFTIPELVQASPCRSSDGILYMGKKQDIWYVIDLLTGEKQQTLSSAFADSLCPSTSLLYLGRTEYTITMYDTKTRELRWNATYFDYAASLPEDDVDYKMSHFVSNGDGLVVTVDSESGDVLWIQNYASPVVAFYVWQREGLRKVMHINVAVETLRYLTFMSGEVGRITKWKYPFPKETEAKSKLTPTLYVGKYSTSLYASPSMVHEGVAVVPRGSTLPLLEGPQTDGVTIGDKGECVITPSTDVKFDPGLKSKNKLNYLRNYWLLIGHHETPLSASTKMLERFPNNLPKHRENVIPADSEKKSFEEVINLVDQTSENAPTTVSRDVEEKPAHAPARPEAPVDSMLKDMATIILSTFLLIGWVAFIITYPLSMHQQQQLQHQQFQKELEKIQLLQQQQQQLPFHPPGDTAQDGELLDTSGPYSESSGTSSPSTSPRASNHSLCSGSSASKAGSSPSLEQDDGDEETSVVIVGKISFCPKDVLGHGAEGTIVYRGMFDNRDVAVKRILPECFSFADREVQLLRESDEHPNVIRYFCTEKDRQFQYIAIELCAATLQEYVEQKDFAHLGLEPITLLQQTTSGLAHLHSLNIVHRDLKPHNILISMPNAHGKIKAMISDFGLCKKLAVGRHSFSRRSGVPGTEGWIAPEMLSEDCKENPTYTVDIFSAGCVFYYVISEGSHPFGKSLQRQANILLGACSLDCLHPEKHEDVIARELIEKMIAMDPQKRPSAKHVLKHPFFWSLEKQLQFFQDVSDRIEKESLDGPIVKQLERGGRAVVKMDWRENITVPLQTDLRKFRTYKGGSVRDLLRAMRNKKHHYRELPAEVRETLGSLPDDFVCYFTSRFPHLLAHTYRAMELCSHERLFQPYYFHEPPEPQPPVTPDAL

Row | SMILES | IC50 [nM]
1 | CN1CCN(CCC(=O)N2CCc3c(ccc(O)c3C=O)C2)CC1 | > 10000
2 | Cc1c(-c2ccc(C(=O)N3CCC(C)CC3)cc2)c(=O)oc2c(C=O)c(O)ccc12 | < 1000
3 | Cc1c(Br)c(=O)oc2c(C=O)c(O)c(F)cc12 | < 1000
4 | Cc1c(-c2ccc(C(=O)N3CCCC3)cc2)c(=O)oc2c(C=O)c(O)ccc12 | < 1000
5 | O=Cc1c(O)ccc2nc(-c3cccc(C(=O)N4CCOCC4)c3)ccc12 | < 1000
6 | Cc1nc(N2CCc3c(ccc(O)c3C=O)C2)sc1C(=O)N1CCOCC1 | < 10000
7 | Cc1cc(=O)oc2c(C=O)c(O)c(F)cc12 | < 1000
8 | COC(=O)c1ccc(-c2nc3ccc(O)c(C=O)c3[nH]2)cc1 | < 1000
9 | O=Cc1c(O)ccc2nc(-c3ccc(C(=O)O)cc3)[nH]c12 | < 1000
10 | CC(C)N1CCN(c2nc3ccc(O)c(C=O)c3s2)CC1 | < 100
11 | COc1cc2c(C)c(-c3ccc(C(=O)N4CCOCC4)cc3)c(=O)oc2c(C=O)c1O | < 1000
12 | O=Cc1c(O)ccc2nc(N3CCC(NC(=O)CN4CCOCC4)C3)ccc12 (stereo not given) | < 100
13 | CCN(CC)CCc1c(C)c2ccc(O)c(C=O)c2oc1=O | < 100
14 | O=Cc1c(O)ccc2nc(-c3ccc(C(=O)N4CCCC4)cc3)ccc12 | < 100
15 | O=Cc1c(O)ccc2nc(-c3ccc(C(=O)N4CCOCC4)cc3)[nH]c12 | < 100

Second part, the compound after the results:

Row | IC50 [nM] | SMILES
16 | < 100 | CC1CCN(C(=O)c2ccc(-c3nc4ccc(O)c(C=O)c4s3)cc2)CC1
17 | < 100 | Cc1c(-c2ccc(C(=O)N3CCN(C)CC3)cc2)c(=O)oc2c(C=O)c(O)ccc12
18 | < 100 | Cc1c(Br)c(=O)oc2c(C=O)c(O)ccc12
19 | < 100 | O=Cc1c(O)ccc2nc(-c3ccc(C(=O)NCCN4CCOCC4)cc3)[nH]c12
20 | < 100 | COc1cc2c(C)c(Br)c(=O)oc2c(C=O)c1O
21 | < 100 | CC1CCN(C(=O)c2ccc(-c3ccc4c(C=O)c(O)ccc4n3)cc2)CC1
22 | < 100 | Cc1c(CCC(=O)N2CCOCC2)c(=O)oc2c(C=O)c(O)ccc12
23 | < 100 | Cc1c(-c2cccc(C(=O)N3CCOCC3)c2)c(=O)oc2c(C=O)c(O)ccc12
24 | < 100 | Cc1c(Cc2ccccc2)c(=O)oc2c(C=O)c(O)c(O)cc12
25 | < 100 | O=Cc1c(O)ccc2cc(-c3ccc(Br)cc3)c(=O)oc12
26 | < 100 | CC(=O)NC1CCN(c2ccc3c(C=O)c(O)ccc3n2)C1 (stereo not given)
27 | < 100 | CN1CCN(C(=O)c2ccc(-c3nc4ccc(O)c(C=O)c4s3)s2)CC1
28 | < 100 | Cc1c(-c2cccc(C(=O)N3CCCC3)c2)c(=O)oc2c(C=O)c(O)ccc12
29 | < 100 | CN1CCN(C(=O)c2ccc(-c3nc4ccc(O)c(C=O)c4[nH]3)cc2)CC1
30 | < 100 | CN1CCN(C2CCN(c3nc4ccc(O)c(C=O)c4s3)C2)CC1 (stereo not given)

From ChEMBL document CHEMBL3639376, “IRE-1Œ± inhibitors” (2015)
